From US11898167B2, “Reversible stencils for fabricating micro-tissues” (The Regents of the University of California, priority 2014, dated 2024)
“Also recorded” adds a separate entry of the source.

Experiments:
Assay type in all cases: cell-based, human
[1] = tested on: wild type iPS-CM micro-tissues; assay: Beating (beat rate, contraction velocity) of wild type iPS-CM three-dimensional micro-tissues in stencil microwells, drug response
Method: (§1) The beating rate, maximum contraction velocity, and spatial coordination of beating within micro-tissues was assessed visually, and quantified using image processing software was used, such as the custom block-matching optical flow software, described in a publication that is currently under review (Huebsch 2014). Micro-tissue response to drugs, including verapamil and isoproterenol, was tested using an automated inverted microscope (Zeiss).
Beginning five days after seeding cells into micro-tissue molds, the beating parameters of spontaneously beating (non-paced) iPS-CM micro-tissues were analyzed. […] Despite this difference, micro-tissues maintained in RPMI media with B27 supplement all beat at nearly the same rate (FIG. 4B). Micro-tissues incubated in StemPro 34 media beat with a slightly more variable rate from one tissue to the next, but at a basal rate closer to the physiological levels of 1 Hz for human cells (data not shown).

[2] = tested on: iPS-CM two-dimensional monolayers; assay: Beating of iPS-CM in unpatterned two-dimensional monolayers/cell clusters, drug response
MYBPC3−/− micro-tissues = assay: Beat-rate response of MYBPC3 null iPS-CM micro-tissues
Method: as §1
To model hypertrophic cardiomyopathy, MYPBC3 was knocked out of wild type iPS.

[3] = tested on: heterozygous MYPBC3+/− iPS micro-tissues; assay: Beat-rate response of heterozygous MYBPC3 iPS-CM micro-tissues; conditions: first daily 10 uM dose
Method: as §1
FIGS. 4G and 4H further illustrate that micro-tissues generated from mutant cells are excellent models of human diseases. Micro-tissues were generated within the dogbone-shaped microwells described herein from three different cell types: wild type MYPBC3^+/+ iPS, heterozygous MYPBC3^+/− iPS, and null MYPBC3^−/− iPS. […] However, upon repeated exposure to isoproterenol, the differences heterozygous and null MYPBC3 tissue responses became less significant (FIG. 4H).

[4] = tested on: iPS-CM micro-tissues harboring the GCaMP6f calcium indicator; assay: Calcium flux (GCaMP6f reporter) in iPS-CM micro-tissues; set-up: dose or concentration left out as unconfirmed; conditions: 1 week and 2 week micro-tissues, paced at 1 Hz; isoproterenol
Method: Induced pluripotent stem cells genetically modified to express the GCaMP6f calcium indicator gene product, and then differentiated into cardiomyocytes (iPS-CM). Micro-tissues were made with iPS-CM harboring the GCaMP6f calcium indicator, to allow continuous recording of calcium flux as illustrated in FIG. 8.
FIG. 8D-8E illustrate the functional maturation of iPS-CM-derived micro-tissues (μHT, micro-heart tissues). After 1 or 2 weeks of incubation in the stencil microwells, the micro-tissues were paced at 1 Hz for analysis of inotropy.

[5] = tested on: micro-muscle heart tissues; assay: Calcium dose response of twitch force of micro-muscles; conditions: increasing extracellular calcium concentrations (2 mM, 6 mM shown)
Source text: Representative micro-muscle heart tissues were generated by seeding small numbers of cardiomyocytes into stencil microwells as described herein. Separate micro-muscles were then contacted with different extracellular calcium concentrations.

`CC(C)NCC(O)c1ccc(O)c(O)c1` (stereo not shown) [isoproterenol] was tested, and the beat-rate response ([1]; 3D micro-tissues, wild type iPS-CM, non-paced, 10 μm isoproterenol) was “highly reproducible; also recorded: robust increase in beat-rate response”, the “intensity of beating, measured via the maximum contraction velocity (inotropic response)” value ([1]; 3D micro-tissues, 10 μm isoproterenol) was “exhibit an inotropic response” and the “cessation of beating at high doses” value ([1]; 3D-cultured micro-tissues within stencil wells, high doses) was “no such effects were observed”. The “beating frequency in response to isoproterenol” value (shortened to “beating frequency in response”) ([1]; wild type MYPBC3+/+ micro-tissues, first daily 10 uM dose) was “greatest increase in beating frequency”, the beat-rate response ([2]; 2D cultured iPS-CM monolayers, non-paced, 10 μm isoproterenol) was “erratic/unpredictable responses; also recorded: varies significantly from one test to the next; also recorded: large variance amongst samples” and the “intensity of beating (inotropic response)” value ([2]; 2D monolayers, 10 μm isoproterenol) was “did not affect the intensity of beating”. The “cessation of beating at high doses” value ([2]; 2D-cultured cells and cell clusters, high doses) was “stopped beating”, the “beating frequency in response” value (MYBPC3−/− micro-tissues; null MYPBC3−/− micro-tissues, first daily 10 uM dose) was “returned to a lower beating frequency significantly faster” and the “beat-rate (chronotropic response)” value (MYBPC3−/− micro-tissues; short-term (30 minutes) and chronic (5 days of daily dosing) exposure, 10 μm isoproterenol, compared with wild type) was “blunted decrease in beat-rate”. For the same compound, the “beating frequency in response” value [3] was “less than the wild type MYPBC3 tissues but greater than the null MYPBC3 tissues” and the calcium flux response [4] was “responded to isoproterenol”.

With `COc1ccc(CCN(C)CCCC(C#N)(c2ccc(OC)c(OC)c2)C(C)C)cc1OC` (stereo not shown) [verapamil] the “IC50 value (beating)” value ([1]; stencil micro-tissues compared to the same cells in non-patterned 2D monolayers, 30 minutes per dose) was “higher IC50 value”.

In the case of `[Ca+2]` [calcium], the twitch force [5] is reported as “dramatically increases”.
